In patent US9688710B2, “Inhibitors of sodium glucose cotransporter 1” (LEXICON PHARMACEUTICALS, INC., priority 2012, dated 2017):

Experiments:
[1] = biological target: Human sodium/glucose co-transporter type 2 (SGLT2) (Homo sapiens (Human), UniProt P31639); assay: In vitro human SGLT2 inhibition assay (14C-AMG uptake); format: cell-based; conditions: HEK293 cells expressing human HA-SGLT2, 14C-AMG uptake
In short: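 HEK293 cells stably expressing HA-tagged human SGLT2, seeded overnight, washed into Na+-containing HEPES/Tris uptake buffer with 1 mg/mL BSA, pH 7.3. Compound added, then 14C-AMG (100 nCi); 1-2 h at 37 °C, 5% CO2. Washed cells counted by scintillation for 14C-AMG uptake.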

KKay mice [2] = assay: Glucose challenge in KKAy diabetic mice (glucose excursion); format: in vivo; conditions: KKay mice on 45% high fat diet, 1.5 and 4.5 mg/kg once daily, day 22, glucose bolus 2 g/kg 15 hours after dosing
Excerpt: (§1) Twelve week-old male KKay mice were purchased from The Jackson Laboratory (Bar Harbor, Me.). They were switched to 45% high fat diet (HFD; diet D12451i, Research Diets) and housed individually for one week before study. The mice were randomized into the following groups by their HbA1c levels and body weights:
(§2) Mice received either vehicle or Compound C once daily at […] for 36 days. Body weight and food consumption were monitored daily. On day 22, blood was collected before glucose challenge for baseline glucose. Mice were then given a bolus dose of glucose (2 g/kg, 10 mL/kg). Blood was collected at 30, 60 and 120 minutes after glucose challenge to estimate the glucose excursion. Blood glucose was analyzed by Cobas Integra 400 Autoanalyzer (Roche Diagnostics).

KKay mice [3] = assay: HbA1c in KKAy diabetic mice; format: in vivo; conditions: 1.5 and 4.5 mg/kg once daily, day 26
Excerpt: as §1, §2
On day 26 after dosing, blood was collected for HbA1c. HbA1c was measured using a meter manufactured by Bayer according to the protocol recommended by Bayer.

KKay mice [4] = assay: Postprandial tGLP-1 in KKAy diabetic mice; format: in vivo; conditions: 4.5 mpk group, day 29, 60 minutes after glucose bolus 2 g/kg
Excerpt: as §1, §2
On day 29, the mice again received a glucose bolus (2 g/kg, 10 mL/kg). Blood was collected at 60 minutes after glucose challenge and analyzed for tGLP-1. Plasma was prepared by centrifuging blood samples at 1000 rpm for 10 minutes at 4° C. tGPL-1 was analyzed by ELISA (Glucagon-Like Peptide-1 Total ELISA Kit, catalog #EZGLP1T-36K, Millipore, St. Charles, Mo.) according to the protocol recommended by Millipore.

[5] = biological target: Human sodium/glucose co-transporter type 1 (SGLT1) (Homo sapiens (Human), UniProt P13866); assay: In vitro human SGLT1 inhibition assay (14C-AMG uptake); format: cell-based; conditions: HEK293 cells expressing human HA-SGLT1, 14C-AMG uptake
In short: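 HEK293 cells stably expressing human HA-tagged SGLT1 (30,000/well, overnight) were washed into Na+-containing uptake buffer (140 mM NaCl, HEPES/Tris, 1 mg/mL BSA, pH 7.3). Cells then received compound plus 100 nCi 14C-AMG for 1–2 h at 37 °C; after washing, AMG uptake was quantified by scintillation counting.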

Sequence of Human sodium/glucose co-transporter type 2 (SGLT2) (P31639 whole entry): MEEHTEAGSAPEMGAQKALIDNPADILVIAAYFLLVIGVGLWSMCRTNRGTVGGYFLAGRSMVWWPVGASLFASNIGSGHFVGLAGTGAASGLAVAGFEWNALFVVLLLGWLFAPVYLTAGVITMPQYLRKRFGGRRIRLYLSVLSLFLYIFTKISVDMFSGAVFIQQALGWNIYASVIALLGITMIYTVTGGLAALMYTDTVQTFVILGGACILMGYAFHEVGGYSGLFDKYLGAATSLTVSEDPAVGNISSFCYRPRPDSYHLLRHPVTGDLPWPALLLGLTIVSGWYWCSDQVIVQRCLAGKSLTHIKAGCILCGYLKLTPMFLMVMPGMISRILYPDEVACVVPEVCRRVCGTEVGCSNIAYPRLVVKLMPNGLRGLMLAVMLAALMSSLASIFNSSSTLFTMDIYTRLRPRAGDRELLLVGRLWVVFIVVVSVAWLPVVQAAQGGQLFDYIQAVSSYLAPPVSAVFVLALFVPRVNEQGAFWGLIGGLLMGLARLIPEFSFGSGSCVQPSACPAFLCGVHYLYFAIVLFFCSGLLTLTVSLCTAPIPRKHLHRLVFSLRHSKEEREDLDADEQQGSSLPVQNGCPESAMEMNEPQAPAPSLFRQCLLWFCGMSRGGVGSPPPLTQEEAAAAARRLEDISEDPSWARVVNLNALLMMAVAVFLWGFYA
Sequence of Human sodium/glucose co-transporter type 1 (SGLT1) (P13866 whole entry): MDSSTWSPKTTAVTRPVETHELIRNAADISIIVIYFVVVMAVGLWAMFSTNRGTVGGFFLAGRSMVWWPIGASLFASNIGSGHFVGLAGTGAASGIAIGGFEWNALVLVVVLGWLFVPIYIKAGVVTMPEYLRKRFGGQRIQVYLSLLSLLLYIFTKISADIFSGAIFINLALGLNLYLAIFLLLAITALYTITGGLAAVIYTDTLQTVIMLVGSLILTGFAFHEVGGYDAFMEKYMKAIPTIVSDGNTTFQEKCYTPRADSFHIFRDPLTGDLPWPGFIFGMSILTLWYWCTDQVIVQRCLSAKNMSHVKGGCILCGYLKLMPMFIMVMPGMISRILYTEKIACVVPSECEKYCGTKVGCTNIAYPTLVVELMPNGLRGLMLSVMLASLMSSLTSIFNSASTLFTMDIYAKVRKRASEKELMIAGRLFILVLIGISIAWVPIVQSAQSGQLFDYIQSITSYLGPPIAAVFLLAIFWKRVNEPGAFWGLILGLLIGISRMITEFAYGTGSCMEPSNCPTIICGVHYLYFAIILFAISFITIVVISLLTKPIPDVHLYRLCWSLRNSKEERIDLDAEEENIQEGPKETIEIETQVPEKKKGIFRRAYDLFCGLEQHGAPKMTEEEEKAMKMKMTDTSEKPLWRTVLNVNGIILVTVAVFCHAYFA

Compound | IC50 [1] [nM] | glucose excursion after glucose challenge (KKay mice [2]) | HbA1c (KKay mice [3]) | postprandial tGLP-1 (KKay mice [4]) | IC50 [5] [nM]
CS[C@H]1O[C@@H](c2ccc(C)c(Cc3ccc(OCCCNC(C)(C)CO)cc3)c2)[C@H](O)[C@@H](O)[C@@H]1O [(2S,3R,4R,5S,6R)-2-(3-(4-(3-((1-hydroxy-2-methylpropan-2-yl)amino)propoxy)benzyl)-4-methylphenyl)-6-(methylthio)tetrahydro-2H-pyran-3,4,5-triol] | < 10 | dose-dependent decrease in glucose excursion | significant, dose-dependent reduction in HbA1c | significant increase in postprandial tGLP-1 | < 10
CCC(=O)NCCOc1ccc(Cc2cc([C@@H]3O[C@H](SC)[C@@H](O)[C@H](O)[C@H]3O)ccc2Cl)cc1 [N-(2-(4-(2-chloro-5-((2S,3R,4R,5S,6R)-3,4,5-trihydroxy-6-(methylthio)tetrahydro-2H-pyran-2-yl)benzyl)phenoxy)ethyl)propionamide] | < 10 |  |  |  | < 10
